{
  "source": "patent US7906486B2",
  "about": "“Method of treating or preventing tissue deterioration, injury or damage due to disease of mucosa” (SciClone Pharmaceuticals, Inc., priority 2007, dated 2011)",
  "key": {"[1]": {"test_system": "oral mucositis induced by acute radiation (40 Gy, left buccal cheek pouch)", "experiment": "Oral mucositis induced by acute radiation in hamsters, mucositis scoring (Example 2, SCI-02)", "type": "in vivo, Syrian Golden Hamsters", "parameters": "key to peak mean mucositis score: 0 = normal to 5 = severe ulceration (visual scale); key to Mucositis score: 0: Pouch completely healthy. No erythema or vasodilation.; 1: Light to severe erythema and vasodilation. No erosion of mucosa.; 2: Severe erythema and vasodilation. Erosion of superficial aspects of mucosa leaving denuded areas. Decreased stippling of mucosa.; 3: Formation of off-white ulcers in one or more places. Ulcers may have a yellow/gray due to pseudomembrane. Cumulative size of ulcers should equal about ¼ of the pouch. Severe erythema and vasodilation.; 4: Cumulative seize of ulcers should equal about ½ of the pouch. Loss of pliability. Severe erythema and vasodilation.; 5: Virtually all of pouch is ulcerated. Loss of pliability (pouch can only partially be extracted from mouth)", "details": "for % Days >=3 / Days <3 / Days >=3 / Chi Sq v control: sc, days -1 to 20; for Mucositis score: Group 2 (SCV-07 100 μg/kg once daily, days -1 to 20), individual animals, two scores per animal; for Days >=3: animal days with mucositis score of three or more; for Chi Sq v control: days with score >=3", "excerpt": "The acute radiation model in hamsters, developed by the Principle Investigator, has proven to be an accurate, efficient and cost-effective technique to provide a preliminary evaluation of anti-mucositis compounds. The course of mucositis in this model is well defined and results in peak scores approximately 14-16 Days following radiation. The acute model has little systemic toxicity, resulting in few hamster deaths, thus permitting the use of smaller groups (N=7-8) for initial efficacy studies. It has also been used to study specific mechanistic elements in the pathogenesis of mucositis. Molecules that show efficacy in the acute radiation model may be further evaluated in the more complex models of fractionated radiation, chemotherapy, or concomitant therapy.\nIn this study, an acute radiation dose of 40 Gy on day 0 was administered. Clinically significant mucositis was observed on days 12 through 28.\nForty (40) Syrian Golden Hamsters were given an acute radiation dose of 40 Gy directed to their left buccal cheek pouch on day 0. Test material SCV-07 was given by sub-cutaneous injection at 100 μg/kg or 1 mg/kg once or twice daily. Dosing began one day before radiation (day −1) and continued until day 20. Mucositis was evaluated clinically starting on day 6, and continuing on alternate days until day 28.\nThe grade of mucositis was scored, beginning day 6, and for every second day thereafter, through and including day 28. The effect on mucositis of each drug treatment compared to placebo was assessed according to the following parameters:\nOn each evaluation day, the number of animals with a blinded mucositis score of ≧3 in each drug treatment group was compared to the control group. Differences were compared on a cumulative basis and statistical significance was determined by chi-square analysis. Efficacy, in this analysis, is defined by a significant reduction in the number of days that a group of animals had ulcerations (scores ≧3) when compared to the control group. This same test was also used to evaluate differences between different drug treatment groups.\nFor each evaluation day the scores of the control group were compared to those of the treated groups using non-parametric rank sum analysis. Treatment success was considered as a statistically significant lowering of scores in the treated group on 2 or more days from day 6 to day 28.\nForty Syrian Golden Hamsters were divided into five (5) groups of eight (8) animals each. All animals received a single dose of acute radiation of 40 Gy directed to their left buccal cheek pouch on day 0. This was accomplished by anesthetizing the animals and everting the left buccal pouch, while protecting the rest of the animals with a lead shield. Test materials were given by sub-cutaneous injection once daily as detailed in Table 5. Mucositis was evaluated clinically starting on Day 6, and continuing on alternate days until day 28.\nMucositis was induced using a standardized acute radiation protocol. A single dose of radiation (40 Gy/dose) was administered to all animals on day 0. Radiation was generated with a 160 kilovolt potential (15-ma) source at a focal distance of 30 cm, hardened with a 0.35 mm Cu filtration system. Irradiation targeted the left buccal pouch mucosa at a rate of 3.2 Gy/minute. Prior to irradiation, animals were anesthetized with an intraperitoneal injection of Ketamine (160 mg/kg) and Xylazine (8 mg/kg). The left buccal pouch was everted, fixed and isolated using a lead shield to protect all other parts of the hamster's body.\nThe mucositis score, weight change and survival were measured throughout the study as described above. For the evaluation of mucositis, the animals were anesthetized with an inhalation anesthetic, and the left pouch everted. Mucositis was scored visually by comparison to a validated photographic scale, ranging from 0 for normal, to 5 for severe ulceration (clinical scoring). In descriptive terms, this scale is defined as follows: […]"}, "[2]": {"experiment": "Weights and survival (Example 2, SCI-02)", "type": "in vivo, Syrian Golden Hamsters", "protocol": "All animals were weighed daily and their survival recorded, in order to assess possible differences in animal weight among treatment groups as an indication for mucositis severity and/or possible toxicity resulting from the treatments.\nThe mean daily percent weight change data was evaluated. The saline treated control hamsters gained an average of 44.1% of their starting weight during the study. Hamsters in the group receiving SCV-07 100 μg/kg once daily on days −1 to 20 gained an average of 49.9% of their starting weight during the study. Hamsters in the group receiving SCV-07 at 100 μg/kg twice daily on days −1 to 20 gained an average of 61.3% of their starting weight during the study. Hamsters in the group receiving SCV-07 at 1 mg/kg once daily on days −1 to 20 gained an average of 63.4% of their starting weight during the study. Hamsters in the group receiving SCV-07 at 1 mg/kg twice daily on days −1 to 20 gained an average of 69.1% of their starting weight during the study. The significance of these differences was evaluated by calculating the area-under-the-curve (AUC) for the weight gain of each animal, and then comparing the different treatment groups using a One-Way ANOVA test."}, "spleen lymphocytes": {"test_system": "spleen lymphocytes", "details": "cited from earlier work"}, "[3]": {"details": "100 ug/kg once daily from day -1 to 20"}, "[4]": {"details": "1 mg/kg once daily from day -1 to 20"}, "[5]": {"details": "1 mg/kg twice daily from day -1 to 20"}},
  "note": "Several values for one entry are separate records, joined by “and”; a condition that tells them apart may be missing. Equal values may be shown once.",
  "data": [
    {"compound": "N[C@H](CCC(=O)N[C@@H](Cc1c[nH]c2ccccc12)C(=O)O)C(=O)O", "note": "[SCV-07, γ-D-glutamyl-L-tryptophan]", "values": [
      {"measurement": "day of peak mean mucositis score", "setting": "[1]; [3]", "value": 16},
      {"measurement": "peak mean mucositis score", "setting": "[1]; [3]", "value": 2.2},
      {"measurement": "peak mean mucositis score", "setting": "[1]; 100 ug/kg twice daily from day -1 to 20", "value": 2.5},
      {"measurement": "% Days >=3", "setting": "[1]; 100 ug/kg, bid", "value": 8.9, "unit": "%"},
      {"measurement": "Days <3", "setting": "[1]; 100 ug/kg, bid", "value": 175},
      {"measurement": "% Days >=3", "setting": "[1]; 100 ug/kg, qd", "value": 6.3, "unit": "%"},
      {"measurement": "Days <3", "setting": "[1]; 100 ug/kg, qd", "value": 180},
      {"measurement": "day of peak mean mucositis score", "setting": "[1]; [4]", "value": 14},
      {"measurement": "peak mean mucositis score", "setting": "[1]; [4]", "value": 2.9},
      {"measurement": "improvement in daily mucositis scores relative to controls (Mann-Whitney rank sum)", "setting": "[1]; 1 mg/kg once daily on days -1 to 20, any day of the study", "value": "no significant improvement in mucositis on any day"},
      {"measurement": "day of peak mean mucositis score", "setting": "[1]; [5]", "value": 14},
      {"measurement": "peak mean mucositis score", "setting": "[1]; [5]", "value": 2.6},
      {"measurement": "% Days >=3", "setting": "[1]; 1 mg/kg, bid", "value": 12.5, "unit": "%"},
      {"measurement": "Days <3", "setting": "[1]; 1 mg/kg, bid", "value": 168},
      {"measurement": "% Days >=3", "setting": "[1]; 1 mg/kg, qd", "value": 28.1, "unit": "%"},
      {"measurement": "Days <3", "setting": "[1]; 1 mg/kg, qd", "value": 138},
      {"measurement": "Mucositis score", "setting": "[1]; day 6", "value": "1 (6×) and 0 (2×)"},
      {"measurement": "Mucositis score", "setting": "[1]; day 8", "value": 1},
      {"measurement": "Mucositis score", "setting": "[1]; day 10", "value": "2 (4×) and 1 (4×)"},
      {"measurement": "Mucositis score", "setting": "[1]; day 12", "value": "2 (7×) and 3"},
      {"measurement": "Mucositis score", "setting": "[1]; day 14", "value": 2},
      {"measurement": "Mucositis score", "setting": "[1]; day 16", "value": 2},
      {"measurement": "Mucositis score", "setting": "[1]; day 18", "value": "2 (5×) and 3 (2×) and 1"},
      {"measurement": "Mucositis score", "setting": "[1]; day 20", "value": "2 (6×) and 3 (2×)"},
      {"measurement": "Mucositis score", "setting": "[1]; day 22", "value": "1 (2×) and 2 (7×)"},
      {"measurement": "Mucositis score", "setting": "[1]; day 24", "value": "1 (3×) and 2 (6×)"},
      {"measurement": "Mucositis score", "setting": "[1]; day 26", "value": "1 (2×) and 2 (7×)"},
      {"measurement": "Mucositis score", "setting": "[1]; day 28", "value": "1 (7×) and 2 (2×)"},
      {"measurement": "Days >=3", "setting": "[1]; 100 ug/kg, bid", "value": 17},
      {"measurement": "Days >=3", "setting": "[1]; 100 ug/kg, qd", "value": 12},
      {"measurement": "Days >=3", "setting": "[1]; 1 mg/kg, bid", "value": 24},
      {"measurement": "Days >=3", "setting": "[1]; 1 mg/kg, qd", "value": 54},
      {"measurement": "P, number of animal days with a score of 3 or higher, 100 ug/kg once daily vs 1 mg/kg twice daily", "setting": "[1]; chi-squared test, no statistically significant difference", "value": 0.054},
      {"measurement": "Chi Sq v control", "setting": "[1]; 100 ug/kg, bid", "value": 21.4010},
      {"measurement": "Chi Sq v control", "setting": "[1]; 100 ug/kg, qd", "value": 27.828},
      {"measurement": "Chi Sq v control", "setting": "[1]; 1 mg/kg, bid", "value": 12.7360},
      {"measurement": "Chi Sq v control", "setting": "[1]; 1 mg/kg, qd", "value": 0.0000},
      {"measurement": "average weight gain, % of starting weight during the study", "setting": "[2]; 100 ug/kg once daily on days -1 to 20", "value": 49.9, "unit": "%"},
      {"measurement": "P, weight gain greater than saline controls", "setting": "[2]; 100 ug/kg twice daily", "value": 0.014},
      {"measurement": "average weight gain, % of starting weight during the study", "setting": "[2]; 100 ug/kg twice daily on days -1 to 20", "value": 61.3, "unit": "%"},
      {"measurement": "P, weight gain greater than saline controls", "setting": "[2]; 1 mg/kg once daily", "value": 0.009},
      {"measurement": "average weight gain, % of starting weight during the study", "setting": "[2]; 1 mg/kg once daily on days -1 to 20", "value": 63.4, "unit": "%"},
      {"measurement": "P, weight gain greater than saline controls", "setting": "[2]; 1 mg/kg twice daily", "value": 0.004},
      {"measurement": "average weight gain, % of starting weight during the study", "setting": "[2]; 1 mg/kg twice daily on days -1 to 20", "value": 69.1, "unit": "%"},
      {"measurement": "P, One-Way ANOVA of weight gain AUC, SCV-07 treated groups vs control group", "setting": "[2]; all SCV-07 groups, significant differences", "value": 0.012},
      {"measurement": "IL-2 receptor expression by spleen lymphocytes", "setting": "spleen lymphocytes; Con-A-induced", "value": "increases"},
      {"measurement": "Con-A-induced interleukin-2 (IL-2) production", "setting": "spleen lymphocytes; spleen lymphocytes", "value": "increases"}
    ]}
  ]
}
